Laboratory results: patent US12122811B2, “BDNF mimetic peptide amphiphiles” (Northwestern University, priority 2018, dated 2024)
Non-standard residues stand in square brackets, D forms with d. Primed or numbered codes have the meaning given here. No end group written: not given here. PEG6′ = PEG6 spacer

How the values were obtained:
cortical neurons = assay: Infiltration and maturation of cortical neurons on 3D PA gel scaffolds; assay type: cell-based, mouse; details: neurons on gels, one week
Method: Gels were made using annealed PAs prepared with methods described herein 1. BDNF native protein or BDNF peptide were incorporated by mixing at 10 nM or 0.5 uM respectively, with E2 Filler PA gel at 1 wt % while it was in its liquid state. Silicon isolators with adhesive (Invitrogen) were placed on PDL coated glass coverslips. 70 μL of PA liquid was pipetted into the circular silicon well and a Transwell insert was placed flush with the top of the well of the silicon insert. This step ensured a flat, even thickness for all gels. Gelling solution comprised of 125 mM NaCl, 3 mM KCl, and 25 mM CaCl2 was pipetted into the Transwell insert and allowed to slowly soak down into the material from the top. The insert prevented the gel from swelling more than the thickness of the silicon isolator. All gels were incubated at 37° C. for 5 min before removing the Transwell insert.
Infiltration Study. Gels were prepared as described in 2.1.2. Gels were then rinsed with media one time before cells were seeded on top at a density of approximately 42,000 cells/well. Cells were cultured for one week in vitro. Half of the gels were analyzed by patch clamp analysis (see section 3.4.9. Other gels were fixed with 4% PFA to perform infiltration studies. Cell were stained for MAP2, TUJ-1 and DAPI using immunocytochemistry methods described previously. Confocal microscopy was used to make z-stack reconstructions of each gel. The MultiMeasure function in the ROI manager of ImageJ was used to measure the depth of pixels for each channel which was then plotted as intensity vs depth in the gel. The average intensity of MAP2 was measured by averaging the mean intensities obtained from maximum intensity projections of z-stacks images of gels.

[1] = test system: mouse model of spinal cord injury; assay: Mouse model of spinal cord injury, Basso Mouse Scale hind limb scoring; assay type: in vivo; details: 12 weeks after injury; BDNF PA co-assembled at 20 mol % with E2 PA gel, injected 24 h after injury
From the text: The spinal cord injury procedures used follow a standardized protocol to ensure a reproducible injury. Mice were anesthetized and their back is opened to reveal the vertebral column. The vertebral bone at T11 was surgically removed to reveal the spinal cord tissue. The mice were then transferred the impactor machine which is used to inflict a compression injury on the exposed spinal cord. The spinal cord was held in place using stereotactic clamps. The instrument inflicts a force of 70-80 kDynes and dwells in the place of the impact for 60 seconds to simulate a crush injury accident. This injury is quite severe. After each impact was performed, the instrument supplies a graph corresponding to the real force and trajectory of the impactor. This graph is used to compare and ensure that all animals receive an injury of the same nature. After the injury is inflicted, the animals were closed and allowed to rest for 24 hours.
The next day, the animals were re-opened and prepared for the “treatment” surgery. Before beginning the procedure, all animals underwent a behavioral assessment and mice with hind limb movement were discarded from the study. When the animal is re-opened, there was typically a dark, bruised area apparent where the crush injury took place the previous day. This is where the treatment was injected. A Hamilton syringe attached to a glass-pulled needle with a diameter of ˜300 μm was used to puncture the bruised dermis of the tissue and the treatment was injected into the underlying tissue cavity. Treatment types include; saline, and the C16V2A2E2 (E2) non-bioactive PA gel as negative controls, as well as the BDNF PA co-assembled at 20 mol % with the E2 non-bioactive PA gel.
After injection, the animals were closed and returned to cages to recover. Over the next 12 weeks, blinded hind limb behavioral scoring was performed to assess any functional changes (FIG. 21). A standardized “Basso Mouse Scale” was used (Basso et al. J Neurotrauma. 2006 May; 23(5):635-59.; herein incorporated by reference in its entirety). Two blinded researchers were either side of a runway where the mouse was guided to move in a straight line. As the mouse walks, each researcher grades the limb movement. Any discrepancies in evaluation were re-evaluated by a third researcher. The score for the two limbs was averaged and marked as the score for that animal.

TrkB receptor = target: T1, TrkB receptor (Mus musculus, UniProt P15209); assay: TrkB receptor phosphorylation (p-TrkB) by western blot in primary cortical neurons; assay type: cell-based; details: for TrkB phosphorylation: 4 and 6 h timepoints, 0.5 μM
T1 construct: Protein was extracted from primary neuronal cultures; endogenous in cells; host or cells: primary cortical neurons from E16 CD1 mouse embryos, 14 DIV
T1 sequence (P15209 32-821): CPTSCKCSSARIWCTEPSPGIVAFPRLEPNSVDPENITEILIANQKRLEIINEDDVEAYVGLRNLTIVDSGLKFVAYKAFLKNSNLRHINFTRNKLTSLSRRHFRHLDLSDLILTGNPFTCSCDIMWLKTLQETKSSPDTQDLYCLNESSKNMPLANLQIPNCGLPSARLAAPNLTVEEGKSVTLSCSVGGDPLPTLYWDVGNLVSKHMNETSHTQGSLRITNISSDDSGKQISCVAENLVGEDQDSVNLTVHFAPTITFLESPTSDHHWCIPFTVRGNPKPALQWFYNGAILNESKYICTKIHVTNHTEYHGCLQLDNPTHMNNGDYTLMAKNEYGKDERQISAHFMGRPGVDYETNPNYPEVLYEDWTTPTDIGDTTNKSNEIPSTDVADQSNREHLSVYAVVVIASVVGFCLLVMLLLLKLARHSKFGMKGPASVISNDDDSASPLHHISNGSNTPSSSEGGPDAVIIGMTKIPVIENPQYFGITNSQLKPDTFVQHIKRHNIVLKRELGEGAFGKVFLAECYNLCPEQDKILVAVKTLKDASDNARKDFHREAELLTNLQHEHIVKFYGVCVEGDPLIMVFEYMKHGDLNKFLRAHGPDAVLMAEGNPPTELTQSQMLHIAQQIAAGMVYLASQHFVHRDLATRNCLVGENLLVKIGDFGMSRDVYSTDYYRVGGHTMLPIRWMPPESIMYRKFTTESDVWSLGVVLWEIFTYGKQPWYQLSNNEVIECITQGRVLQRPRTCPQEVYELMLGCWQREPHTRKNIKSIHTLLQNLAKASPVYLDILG
Method: 2.3.2. Dissection of Embryonic Primary Cortical Neurons. Neurons were obtained from embryonic brains as described elsewhere.^2 Briefly, time-pregnant mouse was sacrificed by cervical dislocation and the embryos were extracted at embryonic day 16 (E16). Cerebral cortices were dissected from the mouse embryos and meninges were removed in a solution of Hank's Balanced Salt Solution (HBSS) with 1% pen-strep (Invitrogen) and then digested with trypsin (Invitrogen) and DNAse (Sigma-Aldrich) for 10 min at 37° C. The tissue was mechanically dissociated, centrifuged at 1000 g for 5 min, and resuspended in CO2-equilibrated Neurobasal (NB) neuronal culture medium (Invitrogen) supplemented with 10% normal horse serum (NHS) (Invitrogen), 1% pen-strep (Invitrogen), 0.5 mM L-glutamine (Invitrogen), and 5.8 μL NaHCO3/mL (Sigma-Aldrich). The cell suspension was pre-plated at 37° C. for 30 min. Afterwards, the supernatant was collected, passed through a cell strainer with 100 μm pore size and centrifuged at 1000 g for 5 min. The pellet was resuspended in NB neuronal culture medium (1% NHS, 1% pen-strep, 0.5 mM L-glutamine, 22 μM glutamic acid (Sigma-Aldrich), 2% B27 (Gibco), and 5.8 μL NaHCO3/mL (Sigma-Aldrich), and plated at different densities (depending on the type of experiment, see below) directly on tissue culture plates coated with poly-D-lysine (Sigma-Aldrich). After 24 hs, the medium was replaced with serum-free neuronal culture medium (1% pen-strep, 0.5 mM L-glutamine, 2% B27, 5.8 μL NaHCO3/mL). Under these conditions, we obtained a neuron-enriched culture with a composition of approximately 10% glial cells.
BDNF PA Treatments and Cell Culture Procedures. Treatments were prepared by dissolving PA (including E2 Filler, E2 Filler+E4PEG, E2 Filler+Linear BDNF, E2 Filler+BDNF PAs) and BDNF peptide at different concentrations (0.5, 1.0 or 5.0 μM), in media without serum or B27 supplement or starvation media. Unless otherwise noted, BDNF PA, Linear BDNF PA, or E4PEG PAs were co-assembled at 10 mol % with E2 filler PA (total concentration of PA was 5.0, 10.0, or 50.0 μM respectively). For the co-assembly ratio study, BDNF PA was co-assembled at 10, 20, 50, 70, 90, and 100 mol %. Human/Murine/Rat BDNF protein (Peprotech) was resuspended at different concentrations (0.25, 0.5 and 1 nM) in starvation media.
For western blot, cells were cultured in 6 well plates at a density of approximately 900,000 cells/well for 14 DIV before being treated. Treatments were added for 2, 4, 6, 8, 12 or 24 h in vitro before protein was harvested. […] Protein was extracted after six hours of treatment.
Western Blot. Protein was extracted from primary neuronal cultures with Halt Protease and Phosphatase Inhibitor Cocktail (Thermo Scientific) and a BCA assay (Thermo Scientific) was performed to determine protein content of each sample. Cell protein was loaded into and separated using a 4-20% SDS-PAGE gel (Bio-Rad). It was then electrotransferred from the gel to a nitrocellulose membrane (Bio-Rad). The membranes were blocked with 5% milk solution (Bio-Rad) for 30 minutes followed by an overnight incubation with primary antibodies at 4° C. The following primary antibodies were used: rabbit anti-pTrkB (1:1000, Cell Signaling), rabbit anti-TrkB (1:1000, Cell Signaling), rabbit anti-Actin (1:2000, Sigma Aldrich), mouse anti-Actin (1:2000, Sigma Aldrich), rabbit anti-pPLCγ (1:1000, Cell Signaling), rabbit anti-PLCγ (1:1000, Cell Signaling), rabbit anti-pAKT (1:2000, Cell Signaling), mouse anti-AKT (1:2000, Cell Signaling), rabbit anti-pERK1+ERK2 (1:1000, Abcam), rabbit anti-ERK 1/2 (1:1000, Cell Signaling), rabbit anti-PSD95 (1:1000, Abcam), rabbit anti-MAP-2 (1:2000, BioLegend), and mouse anti-Tuj-1 (1:1000, BioLegend). Membranes were then incubated with their corresponding secondary HRP-conjugated antibodies (1:1000; ThermoFisher). Protein signals were detected using Radiance Bioluminescent ECL substrate (Azure Biosystems). […]

Compound	distance that neurites infiltrated from the top of the scaffold (cortical neurons)	normalized average of MAP2 intensity (cortical neurons)	final average limb behavioral score (Basso Mouse Scale) [1]	TrkB phosphorylation (TrkB receptor)	TrkB phosphorylation after pre-treatment with inhibitor K252a (TrkB receptor; K252a 2 h prior to treatment, 6 h post-treatment)
C16V2A2E2 (EEAAVV) [E2 Filler PA]	36.9±9.9 μm	0.32±0.06	2.4	none of these control conditions were able to induce TrkB phosphorylation	
Linear BDNF PA: non-cyclized BDNF PA synthesized as a control (chain 1 RKK[aK][dP][PEG6′]EEEEAAVV; chain 2 EEAAVV; not fully specified (C-terminus))				lack of TrkB phosphorylation	
COC(=O)[C@@]1(O)C[C@H]2O[C@]1(C)n1c3ccccc3c3c4c(c5c6ccccc6n2c5c31)C(=O)NC4 [K252a, reference compound]					completely blocked
